This passage reports inhibition and Km results from patent US5959145A, “Fatty acid analog enzyme substrates” (priority 1993, dated 1999).

Experiment [1] relates to yeast myristoylprotein of Mr 20 kDa. The experiment in a line: competition for [3H]myristate incorporation into yeast acylprotein in vivo. The conditions noted are these: Saccharomyces cerevisiae, 0.75 h, read-out: reduction in incorporation of [3H]myristate into yeast myristoylprotein of Mr 20 kDa. In kind it is cell-based. How it is done: Saccharomyces cerevisiae strain BJ405 [MATα, trpl, prbl, prcl, pep4-3; Hemmings et al., Proc. Natl. Acad. Sci. USA 78, 435-439 (1981)] (previously referred to as JR153) was grown to mid-log phase (OD660 nm =1.0-1.2) in YPD medium (1% yeast extract/2% Bactopeptone/2% Dextrose) at 30° C. in a rotary shaker water bath. Cells were pretreated with Cerulenin at 2 μg/ml for 15 minutes and then incubated for 20-45 minutes with unlabeled myristate, palmitate or fatty acid analog at 100 μM in the presence of either 5 μM [9,10-^3 H(N)]-myristate (22.4 Ci/mmol) or L-[^35 S]methionine (1106 Ci/mmol) at 30 μCi/ml of culture.
Cells were cooled on ice 5 minutes, pelleted at 10,000×g, then broken and extracted by the method of Towler et al., Proc. Natl. Acad. Sci. USA 83, 2812-2816 (1986). Total protein synthesis was assayed by trichloroacetic acid (TCA) precipitation. Proteins were separated by SDS-12% polyacrylamide gel electrophoresis, and [^3 H]fatty acid incorporation into cellular acyl-proteins was assayed by autoradiography followed by laser densitometry.

The next experiment concerns wheat germ NMT. In words: in vitro myristoylation assay with partially purified wheat germ NMT. In kind it is biochemical. The settings on record: fatty acid or analog at 5 μM, peptide varied; read-out: Km of peptide substrate Gly-Asn-Ala-Ala-Ser-[125I]Tyr-Arg-Arg. How it is done: Myristoyl CoA and fatty acid analog CoA were generated by incubation of the fatty acid or analog with CoA, ATP and CoA ligase. This reaction mixture was added to wheat germ NMT and Gly-Asn-Ala-Ala-Ser- [^125 I]Tyr-Arg-Arg in the presence of 0.03% Triton® X-100. Reaction products were characterized by reverse phase HPLC and gamma counting.
The invention is illustrated in greater detail in the following Examples 1 to 15 by the synthesis and testing of representative compounds of the invention as myristoylating enzyme substrates. Accordingly, the invention is first illustrated in Examples 1 to 5 by the chemical synthesis of a sulfur-containing analog of myristic acid, namely 11-(ethylthio)undecanoicacid, CH3 CH2 --S--(CH2)10 COOH, which is then tested in vitro as a wheat germ NMT substrate. Wheat germ NMT is a protein similar to yeast NMT. The purity and chemical identity of the synthesized compound were examined using ^1 H and ^13 C NMR as well as mass spectroscopy. The assay that was used to characterize the substrate specificity of wheat germ NMT measures the rate of attachment of a radiolabelled fatty acid to an unlabelled peptide. The fatty acid analog synthesized was nonradioactive.
Characterization of Partially Purified Wheat Germ NMT--Assays for NMT activity were performed using a procedure detailed previously by Towler and Glaser, Proc. Natl. Acad. Sci. USA 83, 2812-2816 (1986). Briefly, the in vitro assay measures the transfer of radiolabelled fatty acid from acyl CoA to a synthetic peptide substrate. The acylpeptide product is identified by reverse phase HPLC. Time and enzyme dependence were evaluated by varying the reaction time or the enzyme concentration. […] Fatty acid specificity was examined essentially as described by Towler et al., J. Biol. Chem. 262, 1030-1036 (1987), except that the peptide Gly-Ser-Ser-Lys-Ser-Lys-Pro-Lys rather than Gly-Asn-Ala-Ala-Ala-Ala-Arg-Arg was used to compare palmitate and myristate utilization by wheat germ NMT. This was necessary because of the presence of a large, peptide-independent peak which co-eluted with a palmitoyl-Gly-Asn-Ala-Ala-Ala-Ala-Arg-Arg standard. [^3 H]Palmitate and [^3 H]myristate were used in this comparison. [^14 C]fatty acids were used to compare C-10, C-12 and C-14 chain lengths. Fatty acyl CoA concentrations in these assays were determined by a modification of the method of Hosaka et al., Methods Enzymol. 71, 325-333 (1981).
Characterization of the Fatty Acid Analog--Gly-Asn-Ala-Ala-Ser-[^125 I]Tyr-Arg-Arg as prepared in Example 2, above, was tested in an in vitro myristoylation system which was modified from that used with radiolabelled fatty acids. […] 20-fold more wheat germ NMT (480-fold purified as in Example 3, above) was used for these assays than for assays which employed [^3 H] myristate. […] Double reciprocal plots were generated for the iodinated peptide with both myristic acid and the sulfur analog by altering the peptide concentration in the presence of a constant amount of fatty acid or analog. […] The assays contained 0.03% Triton X-100 to maintain the solubility of the fatty acids.

Take `CCCCCCCCCCCCCC(=O)O` [myristic acid, reference compound]: the inhibition at 100 µM in experiment [1] lay in the range of 75 to 80%. Besides, in the experiment with wheat germ NMT, the Michaelis-Menten constant (Km) (in general, the concentration of substrate that gives half-maximal velocity) amounted to 3 µM.
